Numbers after ± are expanded uncertainties. Blank lines part the entries; values can stand above or below the molecule they belong to.
Experiment: mn = molality of the nth substance listed, in mol/kg
Conditions: 298.15 K, 101.33 kPa, Liquid

viscosity (m1 = 0.4993): 0.9561 ± 0.031 mPa·s | viscosity (m1 = 0.7501): 0.9914 ± 0.032 mPa·s | viscosity (m1 = 1): 1.028 ± 0.033 mPa·s | viscosity (m1 = 1.499): 1.106 ± 0.035 mPa·s | viscosity (m1 = 1.5): 1.106 ± 0.035 mPa·s | viscosity (m1 = 2): 1.189 ± 0.037 mPa·s
SMILES: NCC(=O)O [2-aminoacetic acid] + O

viscosity (m1 = 0.1002): 0.9179 ± 0.03 mPa·s | viscosity (m1 = 0.4992): 1.017 ± 0.032 mPa·s | viscosity (m1 = 0.7503): 1.08 ± 0.034 mPa·s | viscosity (m1 = 0.9992): 1.152 ± 0.036 mPa·s
SMILES: C[C@H](N)C(=O)O [(S)-2-aminopropanoic acid] + O

viscosity (m1 = 0.0995): 0.9265 ± 0.03 mPa·s | viscosity (m1 = 0.0998): 0.9265 ± 0.03 mPa·s | viscosity (m1 = 0.5004): 1.062 ± 0.034 mPa·s | viscosity (m1 = 0.7502): 1.145 ± 0.036 mPa·s
SMILES: NCC(=O)NCC(=O)O [glycylglycine] + O

Reference: the NIST ThermoML archive (doi:10.1016/j.jct.2004.07.006)
